From EP0499337A1, “Use of tetra:hydro-thieno-pyrido-indole derivatives for the treatment of skin disorders” (YAMANOUCHI EUROPE B.V., priority 1991, dated 1992)
pIC50: −log10 of the molar value. Read-outs that look alike come from different tables or passages of the source.

Tests used:
calmodulin = calmodulin (Homo sapiens, UniProt P0DP23); conditions: Schmidt et al. (1990); cited from earlier work
[1] = system: human polymorphonuclear leukocytes (PMNL); experiment: ROS generation from PMNL, lucigenin-amplified chemiluminescence; format: cell-based; conditions: for pIC50: Homo sapiens, PMNL
Description: Human PMNL were isolated from fresh blood (anticoagulated with sodium citrate) by erythrocyte sedimentation with 1% dextran (Pharmacia, Uppsala, Sweden) centrifugation of the resulting supernatant, followed by hypoosmotic lysis to remove red blood cells. Washed cells were adjusted to 2 x 10⁶ cells/ml in PBS containing fetal calf serum (2%; v/v). Test compounds dissolved in DMSO were diluted with the assay buffer to a final DMSO concentration of 0.5% (v/v).
Then the test compounds (100 µl) were added with subsequent recording for another 16 min period. […] Results were expressed as percent of inhibition or stimulation of the controls (mean of two integrals) in a single experiment.

[2] = system: TPA-induced ear edema in mice; experiment: Intraperitoneal administration, TPA-induced ear edema in mice; format: in vivo; conditions: intraperitoneally, 30 mg/kg, 3 h after challenge
Description: Mice were injected intraperitoneally with 30, 10 or 3.3 mg/kg body weight of the test substances, sphingosine in carboxymethylcellulose (0.5%) and tiflucarbine in physiologic Saline, 10 ml/kg body weight. After 60 minutes the mire were challenged on the left ear with a 0.01 wt% solution of 12-O-tetradecanoylphorbol-13-acetate (TPA) in a 80/20 mixture of acetone/water. At 0, 3, 6 and 24 h after challenge, ear thickness was determined.

HaCaT cells = experiment: Proliferation of HaCaT cells (incorporation of [3H]-thymidine and [14C]-amino acids, total protein content of attached cells); format: cell-based; conditions: Homo sapiens, all parameters measured ([3H]-thymidine, [14C]-amino acids, total protein content), 48 h incubation with compound, read-out: IC₅₀ values, inhibition of proliferation
Source text: HaCaT cells are spontaneously immortalized aneuploid human keratinocytes prepared according to J. Cell. Biol. (1988), 106: 761-771. They can be substituted, however, by SVK₁₄ cells [Taylor-Papadimitriou et al. (1982), J. Cell Differentiat. 11: 169-180] or freshly isolated human keratinocytes [Rheinwald and Green (1975), Cell 6: 331-344].
The HaCaT cells (or the other cells) were routinely grown in Dulbecco's modified essential medium (DMEM) supplemented with 1% antibiotic-antimycotic solution, 4 mM L-glutamine and 10% fetal calf serum in culture flasks (T 175; Falcon Labware, Oxuard, CA, USA). Proliferation tests were carried out with passages 90-95 (for HaCaT-cells) and passages 3-6 (for NHEK's) in 24 well plates (Greiner, Solingen, FRG) as described below. All incubations were performed at 37°C in a humidified atmosphere with 10% CO₂. […]
Proliferation of HaCaT cells was assayed by three different parameters: incorporation of [³H]-thymidine, incorporation of [¹⁴C]-amino acids and the increase of protein content of attached cells. […] Thereafter, the filters were treated with 0.5 ml PROTOSOL®-solution (NEN, Bad Homburg, FRG) at 60°C for 1 h and radioactivity was assessed by liquid scintillation counting. […]
For determination of total protein content, cells were washed twice with methanol. […] Concentration of protein was determined spectrophotometrically using bovine serum albumin as a standard. […]

In the case of `CCN1CCc2[nH]c3cc(F)c4scc(C)c4c3c2C1` [Tiflucarbine, 1-methyl-9-ethyl-4-fluoro-7,8,9,10-tetra:hydro-thieno-[3,2-e]-pyrido-[4,3-b]-indole lactate], the binding to calmodulin (calmodulin) is listed as “bind to calmodulin”, the pIC50 ([1]; 16 min, compound added at peak, 16 min after opsonized zymosan, IC₅₀-values, read-out: Peak CL) is listed as 4.85 and the pIC50 ([1]; 30 min preincubation, unstimulated, IC₅₀-values, read-out: Spontaneous CL) is listed as 5.14. The pIC50 ([1]; stimulation with opsonized zymosan after preincubation, IC₅₀-values, read-out: Induced CL) was 5.13, the pIC50 ([1]; unstimulated cells and cells stimulated with opsonized zymosan or PMA, read-out: IC₅₀ values, inhibition of ROS generation) was 5.15 and the “inhibition of peak chemiluminescence to 50%, fold higher concentrations” value ([1]; both stimuli (opsonized zymosan, PMA), relative to the IC₅₀ of 7 µM) was 2-3 fold. For the same molecule, the “induction of the release of reactive oxygen species” value ([1]; human PMNL, unstimulated) was “does not induce the release”, the “ear edema (ear thickness)” value [2] was “reduced ear edema” and the pIC50 (HaCaT cells) was 4.77 to 5.00.
